The values that follow come from patent US20180371408A1, “CELL CULTURES AND METHODS OF USE” (priority 2017, published 2018).

pIC50: −log10 of the molar value. Where two headings read alike, the source gives them in different places.

In series [1] the test system is testicular cell co-culture (C18-4, TM4, TM3). Kind of series: BrdU incorporation (DNA synthesis) and cell cycle HCA. It is filed as cell-based, mouse. On the procedure:
BrdU incorporation, cell fixation, BrdU, and DNA staining followed the previously published protocol (Liang, et al., 2017b). the determination of DNA damage responses and cytoskeleton analysis was conducted after cell fixation. The cells were then permeabilized by a 0.1% Triton X-100 in PBS, and then incubated with a mouse-anti phosphor-histone H2AX (Ser139) (γ-H2AX) overnight at 4° C. […] Finally, prior to acquiring the images, the cells were stained with Alexa Fluor 488 Phallodin for 30 minutes to stain the F-actin (Liang, et al., 2017)
Multi-Channel images were analyzed using HCS Studio™2.0 TargetActivation BioApplication. Multiple parameters of nuclei were characterized in HCA, including nuclei number, nuclear area, shape, and total DNA intensity. Nuclear shape measurements included P2A, a ratio of the nuclear perimeter squared to 4it*nucleus area (perimeter^2/4π*enuclear area) to evaluate nuclear smoothness, and LWR, a ratio of the nuclear length to width, to measure nuclear roundness. For a fairly round and smooth object, the values for P2A and LWR are around 1.0. Total intensity was defined as total pixel intensity within a cell in the respective channel. The total intensities of BrdU, γ-H2AX, and F-actin of the individual cells were also quantified. With forty-nine 20× images acquired from each well, at least 1,000 cells were analyzed per well, and single-cell based data were extracted for further analysis. The experiments were performed with at least four biological replicates and repeated twice.
(§1) Data were presented as mean±standard deviation (SD).
For orientation: Dividing cells build labelled thymidine or BrdU into new DNA.

The test system is the same in series [2]. Kind of series: Machine learning-based HCA phenotype classification (multinucleated cells, M phase, stretching F-actin filaments). The class given is cell-based, mouse. As to conditions: for induction of multinucleated cells, in words: FIG. 12F.
Excerpt: Our processing pipeline included cell segmentation, localization, and measurements of multiple features of single cells. This pipeline identified the nuclei from the Hoechst 33342 (nuclei) channel and used the nuclei as primary objects to assist in the identification of secondary objects, which included F-actin and γ-H2AX in each cell. The pipeline (which is freely available from the authors upon request) has the ability to measure over 200 cellular features, including size, shape, intensity, and texture of nuclei, intensity, and texture of F-actin, and intensity of γ-H2AX in a single cell. In order to measure the nuclear area and shape of a cell, multiple features such as object area, perimeter eccentricity and orientation had to be extracted. Object intensity was determined through measurements of various intensity statistics including the integrated intensity, the mean intensity, and the maximal or minimal pixel intensities within an object or on the object's edge. To quantify the object's texture, Haralick texture features derived from the co-occurrence matrix were employed to calculate the occurrence of pairs of pixels with specific intensity values and spatial relationships in an image. The texture features were described by homogeneity, local variation, randomness, and the contrast of object texture. Supervised ML was performed with the CellProfiler Analyst via the “RandomForest Classifier” algorithm (Broad Institute, MA) (Jones et al., 2008). RandomForest is an ensemble learning method that constructs decision trees with an averaged prediction, and is robust in high-dimensional data analysis with low bias (Breiman, 2001).
In the current study, we quantified three key phenotypic changes in the co-culture model. The first change we noticed was the induction of multinucleated cells, a unique toxicity marker for BPAF observed in spermatogonia cells in the previous study, was once again examined in the current co-culture testicular cell model. As depicted in FIG. 10, the multinucleated phenotype was identified as a cell with giant nuclei and irregular nuclear contour. […] Mitotic phenotypes were identified as cells with small condensed nuclei with a round shape (prometaphase), condensed nuclei with shallow concavities (metaphase), and nuclei with separated and aligned chromosomes (anaphase, telophase, and late telophase). […] Cells with phenotypic 3D structure have F-actin bundles stretching across their cytoplasm. During the training process, a small set of unclassified objects were manually sorted into two classes, including non-multinucleated cells or multinucleated cells, cells not in M phases or cells in M phase, and cells with or without stretching F-actin filaments. The maximum number of features was set as 20 in order to generate rules for phenotypic classification, and those features were automatically selected by the RandomForest classifier to capture the subtle differences between the classes. The phenotype classification was based on the images acquired by Arrayscan™ VTI HCS reader, and multiple features were measured by CellProfiler. The input features included values describing nuclei size and shape, DNA intensity and texture, F-actin intensity and texture, and γ-H2AX intensity at the single-cell level. For multinucleated cells and M phase cells, the training set was established by visual examination of the images in the nuclei channel. For a cell with stretching F-actin filaments, initial manual classification during the training process was based on multi-channel images, including nuclei, F-actin and γ-H2AX. The results were presented in terms of the number of cells in predefined classes and total cell number per image field. The field-based data were averaged for the well-based condition.
as §1

Series [3] has as its system testicular co-culture: spermatogonial cells (C18-4), Sertoli cells (TM4), Leydig cells (TM3). Briefly: cells. As to conditions: Mus musculus.
Series [4] has as its system pregnancies and sexual development. As to conditions: rats, doses of ˜80 and ˜280 mg/kg; cited from earlier work.
Series [5] relates to human breast cancer cells. Particulars: cited from earlier work.
The test system of another series is HepG2 cell line. Particulars: cited from earlier work.
In the next series the test system is reproductive system. As to conditions: based on ToxCast database and literature search; cited from earlier work.

The pIC50 is the negative decadic logarithm of the IC50, by convention in mol/L. As to `O=S(=O)(c1ccc(O)cc1)c1ccc(O)cc1` [BPS, 4,4′-Sulfonyldiphenol], the “doses with significant decrease in BrdU-positive cells” value in series [1] (24 h) was found to be 100 µM. Also, the “doses with significant induction of cells in M phase” value (shortened to “doses with significant induction”) in series [2] (48 and 72 h) was 100 µM. Also, in series [2] (72 h), the “doses with significant decrease of cells with stretching F-actin filaments (phenotypic 3D structure)” value worked out at 100 µM. In addition, the “induction of multinucleated cells, in words” value (“induction … in words” for short) in series [2] is listed as “did not induce multinucleation”. Further, the pIC50 in series [3] (24 h) was 3.24; in series [3] (48 h), 3.47.
For the compound `Oc1ccc(C(c2ccc(O)cc2)(C(F)(F)F)C(F)(F)F)cc1` [BPAF, 4,4′-(Hexafluoroisopropylidene)diphenol], the “HCA-based cell cycle analysis, in words” value in series [1] was “significantly induced G2/M phase arrest”. In series [1] (72 h), the “dose inducing BrdU-positive cells” value was determined as 10 µM and the “doses with significant decrease in BrdU-positive cells” value is 15 µM. Also, the “Spearman correlation of total F-actin and γ-H2AX intensity, multinucleated versus non-multinucleated cells” value in series [2] (5 μM for 24, 48, and 72 h) was “higher resulting positive correlation”. Besides, the “dose significantly inducing multinucleated cells” value in series [2] (24, 48, and 72 h) was 5 µM. For the same compound, the “doses with significant induction” value in series [2] (24 h) is 10 µM. Further, the “effect on pregnancies and sexual development” value in series [4] was “impaired pregnancies and sexual development”. Besides, the pIC50 in series [3] (24 h) was 4.11. In addition, in series [3] (48 h), the negative logarithm of the IC50 (pIC50) is 4.30.
As to `CC(C)(c1cc(Br)c(O)c(Br)c1)c1cc(Br)c(O)c(Br)c1` [TBBPA, 2,2′,6,6′-Tetrabromo-4,4′-isopropylidenediphenol], in series [1] (48 and 72 h), the “doses with significant decrease in BrdU-positive cells” value worked out at 15 µM. Moreover, the “doses with significant induction” value in series [2] (24, 48, and 72 h) was determined as 15 µM. Besides, the “induction … in words” value in series [2] is reported as “did not induce multinucleation”. Also, the pIC50 in series [3] (24 h) is 4.15; in series [3] (48 h) it was 4.24; in series [3] (read-out: IC50 values (mostly)) it was not below 4.00.
Turning to `CC(C)(c1ccc(O)cc1)c1ccc(O)cc1` [BPA, 4,4′-(propane-2,2-diyl) diphenol], the “doses with significant decrease in BrdU-positive cells” value in series [1] (24 and 48 h) was 100 µM. For the same compound, the “dose able to induce γ-H2AX” value in series [5] was 10 nM. In addition, the “doses with significant induction” value in series [2] (48 and 72 h) is 100 µM. Also, the “doses with significant decrease of cells with stretching F-actin filaments (phenotypic 3D structure)” value in series [2] (24 h) was found to be 100 µM. For the same compound, the “induction … in words” value in series [2] was “did not induce multinucleation”. In addition, in the series with HepG2 cell line, the “dose not able to induce γ-H2AX” value is more than 100 µM. The “effect on pregnancies and sexual development” value in series [4] is on record as “did not alter these reproductive endpoints”. Also, in the series on reproductive system, the “In vivo Reproductive Toxicity” value was “+”. Moreover, the negative logarithm of the IC50 (pIC50) in series [3] (24 h) was 3.68; in series [3] (48 h) it was 3.73.
